Where “and” joins values, the source holds several entries; their conditions need not be identical. Equal entries are not always repeated.
Experiments:
[1] = tested on: skin (buttocks) of three volunteers, epidermis; test: Penetration depth into the skin (color reaction on biopsy slices); type: in vivo; conditions: human
Excerpt: The essential condition is the existence of a specific detection method, which can be used to visualize the presence of particular sunscreen component. In case of quercetin one can take advantage of the existence of ortho dihydroxybenzene (catechol) configuration on the benzene ring B. Different colorimetric methods for catechols have been described. We choose the reaction described in J. Invest Dermatol., 70:197, 1978, (S. Pavel et al.).
Skin penetration study were executed using the following preparations:
1. Quercetin (1%) in cremor cetomacrogolis FNA (CMC)
2. Querceti-gelatin (small molecular weight fraction) (10-20%) in CMC.
3. Quercetin-gelatin (large molecular weight fraction) (10-20%) in CMC.
4. Catechol (1%) (as a penetration marker) in CMC.
The preparations were applied to the skin (buttocks) of three volunteers. The penetration times were 30 min, 1 hour and 3 hours. After each penetration time a biopsy (4 mm) was taken after local anesthesia. The biopsy material was frozen in liquid nitrogen and kept for the further analysis.
The biopsy material were cut in consecutive slices of 8 um thick The slices were incubated in a selected solution to achieve the color characteristic of catecholic structures. The depth of penetration was measured visually and expressed as a percentage penetrated epidermis, as follows: […]

[2] = Chelating capacity: free Fe3+ by ion chromatography; type: physicochemical; conditions: test samples b: Fe2(SO4)3 instead of FeSO4, mixed 1:1 with test solution, 10 minutes at 37° C.; iron alone 0.50
Excerpt: (§1) The amount of free Fe^2+ and Fe^3+ can be determined by ion-chromatography.
(§2) Gelatin has a very high affinity to Dionex column material that is used in the determination of iron ions. Gelatin will not elute from the column and thereby changes the characteristics of the column so that the separation is not stable. To prevent this a solid state extraction (SPE) column is used to separate the metal ions from the gelatin matrix. After this pretreatment the sample is conservated with 10 millimolar hydrochloric acid. The sample is then injected into the ion-chromatograph. The metal-ions form a complex with the pyridine-2,6-dicarboxylic acid (PDCA). The complexed iron ions are then separated by their differences in affinity to the column material, which has as well anion as cation characteristics (mixed mode). […] The signals obtained at the retention times known for Fe^2+ and Fe^3+ are proportional to the concentrations, which are calculated from a calibration curve.
(§3) A Dionex OnGuard-RP P/N 039595 column was conditioned with 5 ml methanol and 10 ml de-ionized water. […] 5 ml of the eluate is quantitatively pipetted into a 10 ml volumetric flask and 20 mM hydrochloric acid was added up to 10.00 ml. […]
(§4) In the same way, test samples 1b, 2b, 3b and 4b were prepared with Fe2(SO4)3 instead of FeSO4. […] The amounts of free Fe^2+ or Fe^3+ were determined by the method described above.

[3] = Chelating capacity: free Fe2+ by ion chromatography; type: physicochemical; conditions: test samples a: 1 millimol/l FeSO4 solution mixed 1:1 with test solution, ethanol:water 1:3, 10 minutes at 37° C.; iron alone 0.50
Excerpt: as §1, §2, §3, §4

[4] = tested on: skin of volunteer subjects (skin types III or IV), UV-A radiation; test: UV-A protection test on volunteer subjects (MPD, SPF); type: in vivo, human; conditions: one value per volunteer
Method: The test is performed on volunteer subjects with normal skin types III (Burns moderately, tans gradually) or IV (Burns minimally; tans well). The subjects have no history of photo-sensitivity, are not using systematic medications and have not been exposed to direct sunlight for the previous 6 weeks.
Two test sites of 5×10 cm, each test site divided in 6 sub-sites, are marked on the back of the subjects between the waist line and the shoulder blades. One test site is not treated and therefor unprotected. On the other test site 100 mg sunscreen product is applied uniformly to the skin so that the amount of the UV-absorbing compound applied is about 2 mg per m2. In case of the quercetin-gelatin compound the amount applied is such that also in this case 2 mg/m2 of the linked quercetin is applied, The applied sunscreen is allowed to dry for about 15 minutes.
A series of six doses of UV-A radiation, increasing in energy is applied to each test site using a UV-A Sellas Sun 2000 (irradiance about 50 milliWatt/cm^2 at 30 cm). […]
The MPD (minimal pigmenting dose) of each test site is determined visually after 3 hours of exposure. The MPD is defined as the quantity of radiation energy required to produce the first unambiguous pigmented reaction.
The SPF (Sun protection factor) is calculated as the quotient of […].

Row | SMILES | Penetration depth, percentage penetrated epidermis ([1]; 30 min) [%] | Penetration depth, percentage penetrated epidermis ([1]; 1 h) [%] | Penetration depth, percentage penetrated epidermis ([1]; 3 h) [%] | Amount of free Fe^3 [2] [millimol per liter] | Amount of free Fe^2+ [3] [millimol per liter] | MPD (minimal pigmenting dose), protected ([4]; protected test site, about 2 mg per m2 UV-absorbing compound (linked quercetin) applied, UV-A doses 33 to 8 joule/cm^2, determined visually after 3 hours) | SPF (Sun protection factor) ([4]; quotient of the MPDs of protected and unprotected skin, UV-A)
1 | Oc1ccccc1O [Catechol (1%), Catechol] | 40 | 60 | 90 |  |  |  | 
2 | O=c1c(O)c(-c2ccc(O)c(O)c2)oc2cc(O)cc(O)c12 [Quercetin, quercetin] | 30 | 50 | 80 | 0.20 | 0.16 | 14 Joule/cm^2 and 19 Joule/cm^2 | 1.8 and 2.4

From patent publication US20040247537A1, “Uv-screening peptide-flavonoid conjugates” (priority 2001, published 2004)
